For one series, the system named is IL-17AF. Briefly: TH17 cytokine inhibition as measured by ELISA (IL-17AF). Type of series: cell-based. The conditions noted are these: 120 h; human CD4+ T cells differentiated to TH17 over 5 days, supernatant ELISA, vs DMSO. Here is the method:
(§1) Peripheral blood mononuclear cells (PBMCs) were sourced from freshly prepared leukocyte enriched plasma (buffy coat) from healthy volunteers from which PBMCs were isolated by density gradient centrifugation using Ficoll-Paque™ PLUS (GE Healthcare). Naïve CD4+ T cells were isolated using the Naïve CD4+ T cell Isolation Kit II (Miltenyi Biotec) as per manufacturer's instructions. CD4+ T cells were plated at 5×10^4 cells/well in 96 well plates pre-coated with immobilized human (h)-αCD3 antibody (eBioscience) then differentiated to TH17 cells using h-αCD28, h-αIFN-γ, h-αIL-4, h-IL-6, h-IL-23, […], h-TGF-β1 (eBioscience) and maintained in a cell culture incubator at 37° C. with 5% CO2 in TexMACS Medium (Miltenyi Biotec) supplemented with 1% Penicillin/Streptomycin (Lonza) over 5 days.
(§2) Human CD4+ T cells were differentiated to TH17 cells as described in the presence or absence of various concentrations of compounds in a final concentration of 0.1% DMSO in TexMACS medium. Supernatants were collected and stored at −20° C. until they were to be assayed for IL-17A, IL-17F, IL-17AF, IL-21 and/or IL-22 levels as determined by Ready-Set-Go ELISA kits (eBioscience) as per manufacturer's instructions. Endpoint absorbance was read at 450 nm and 570 nm according to manufacturer's instructions (eBioscience) using a microplate reader (Perkin Elmer). The percentage of cytokine inhibition was calculated with reference to DMSO treated cells and the IC50s were determined by GraphPad Prism software and presented in the table below.
Background: ELISA stands for enzyme-linked immunosorbent assay.

The target in another series is human RORγ LBD (Homo sapiens (Human), UniProt P51449). Briefly: RORγ LBD binding (Human RORγ Assay System, INDIGO Biosciences). The protocol:
Compound binding to the human RORγ LBD was assessed using the Human RORγ Assay System (INDIGO Biosciences Inc.) as per manufacturer's instructions.

The subject of series [1] is IL-17F. Briefly: TH17 cytokine inhibition as measured by ELISA (IL-17F). Format: cell-based. The settings on record: 120 h; human CD4+ T cells differentiated to TH17 over 5 days, supernatant ELISA, vs DMSO. The protocol:
as §1, §2

A short description of series [2]: TH17 cell viability (Prestoblue). Type of series: cell-based. More on the design: concentration or dose not given beside the values. The conditions noted are these: human; percentage of DMSO treated cells; read-out: % viability of compound treated TH17 cells. Here is the method: as §1
Cells were assayed for viability in the presence or absence of compound using Prestoblue® Cell Viability Reagent (Life Technologies) as per manufacturer's instructions after 30 minutes incubation of TH17 cells with reagent. Absorbance was measured at 570 nm and 600 nm using a microplate reader (Perkin Elmer) and data were analyzed as per manufacturer's instructions. Cell viability was expressed as a percentage of DMSO treated cells.

Series [3] relates to IL-17A. Briefly: TH17 cytokine inhibition as measured by ELISA (IL-17A). Format: cell-based. The conditions noted are these: 120 h; human CD4+ T cells differentiated to TH17 over 5 days, supernatant ELISA, vs DMSO. Here is the method: as §1, §2
Series [4] has as its system IL-22. Briefly: Real-time qRT-PCR gene expression in TH17 cells (IL-22). More on the design: key: A: No change in gene expression observed relative to DMSO treated TH17 cells; B: Decreased gene expression observed relative to DMSO treated TH17 cells; C: Increased gene expression observed relative to DMSO treated TH17 cells. Type of series: cell-based, human. The settings on record: mRNA. The protocol:
as §1
(§3) RNA was isolated from TH17 cells and cDNA was synthesized using the Verso cDNA kit (Thermo Scientific) as per manufacturer's instructions. IL-17A, IL-17F, IL-21, IL-22, G-CSF, IL-23R and FOXP3 gene expression were determined for compound treated and untreated TH17 cell samples using Solaris qPCR Gene expression assays (Thermo Scientific) with an iCycler iQ Real-Time PCR Detection System (Bio-Rad). Individual gene expression was normalized to a panel of six reference genes (ACTB, TBP, HPRT1, PGK1, TFRC and PPIA) (Thermo Scientific) and analyzed by REST 2009 (Qiagen) in accordance to MIQE guidelines (Bustin, et al. (2009) Clin. Chem. 55, 611-622), which is hereby incorporated by reference in its entirety). The effects of compounds on TH17 cytokine mRNA levels are presented as fold change in gene expression of compound treated TH17 cells relative to DMSO treated cells in the table below.
A general note: Quantitative PCR measures a nucleic acid by following its amplification.

A further series has as its system TH17 cells. The experiment in a line: TH17 cellular proliferation (Prestoblue). Type of series: cell-based, human. The conditions noted are these: 3 μM compound, after 5 day TH17 differentiation, relative to DMSO treated cells. The protocol:
as §1
Cellular proliferation was assessed in the presence or absence of 3 μM compound using Prestoblue® Cell Viability Reagent (Life Technologies) as per manufacturer's instructions using absorbance as the output measured by a microplate reader (Perkin Elmer) after 30 minutes of incubation of cells and reagent. A standard curve developed by plotting varying cell numbers versus absorbance was used to assess differences in cellular proliferation between compound treated or untreated cells after the 5 day TH17 differentiation period.

Series [5] deals with IL-22. Briefly: TH17 cytokine inhibition as measured by ELISA (IL-22). Type of series: cell-based. The settings on record: 120 h; human CD4+ T cells differentiated to TH17 over 5 days, supernatant ELISA, vs DMSO. The protocol:
as §1, §2

The next series has as its system IL-23R. Briefly: Real-time qRT-PCR gene expression in TH17 cells (IL-23R). The conditions noted are these: mRNA. Type of series: cell-based, human. Also noted: key: A: No change in gene expression observed relative to DMSO treated TH17 cells; B: Decreased gene expression observed relative to DMSO treated TH17 cells; C: Increased gene expression observed relative to DMSO treated TH17 cells. The protocol: as §1, §3

For series [6], the system named is IL-17F. Briefly: Real-time qRT-PCR gene expression in TH17 cells (IL-17F). Format: cell-based, human. More on the design: key: A: No change in gene expression observed relative to DMSO treated TH17 cells; B: Decreased gene expression observed relative to DMSO treated TH17 cells; C: Increased gene expression observed relative to DMSO treated TH17 cells. The conditions noted are these: mRNA. The protocol: as §1, §3

Series [7] has as its system IL-17A. The experiment in a line: Real-time qRT-PCR gene expression in TH17 cells (IL-17A). Type of series: cell-based, human. More on the design: key: A: No change in gene expression observed relative to DMSO treated TH17 cells; B: Decreased gene expression observed relative to DMSO treated TH17 cells; C: Increased gene expression observed relative to DMSO treated TH17 cells. The settings on record: mRNA. Here is the method:
as §1, §3

The test system of a further series is IL-21. Briefly: Real-time qRT-PCR gene expression in TH17 cells (IL-21). Format: cell-based, human. Also noted: key: A: No change in gene expression observed relative to DMSO treated TH17 cells; B: Decreased gene expression observed relative to DMSO treated TH17 cells; C: Increased gene expression observed relative to DMSO treated TH17 cells. The settings on record: mRNA. The protocol: as §1, §3

The test system of another series is FOXP3. Briefly: Real-time qRT-PCR gene expression in TH17 cells (FOXP3). Format: cell-based, human. More on the design: key: A: No change in gene expression observed relative to DMSO treated TH17 cells; B: Decreased gene expression observed relative to DMSO treated TH17 cells; C: Increased gene expression observed relative to DMSO treated TH17 cells. The conditions noted are these: mRNA. The protocol: as §1, §3

As a reminder, the pIC50 is the negative decadic logarithm of the IC50, by convention in mol/L. As usually defined, the viability is a per cent measure of how many cells are alive, often set against a control.

pIC50: −log10 of the molar value.

human RORγ LBD, sequence (P51449 269-508): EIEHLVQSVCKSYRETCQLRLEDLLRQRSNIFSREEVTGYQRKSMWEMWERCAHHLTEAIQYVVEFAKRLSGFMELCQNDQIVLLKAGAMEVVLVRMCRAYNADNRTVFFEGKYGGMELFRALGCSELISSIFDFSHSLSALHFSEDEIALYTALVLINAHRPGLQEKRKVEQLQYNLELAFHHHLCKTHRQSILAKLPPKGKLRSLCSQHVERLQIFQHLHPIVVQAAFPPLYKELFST

For the compound `CNC(=O)c1ccc2c(c1)CCC(=O)N2Cc1ccc(C(O)(C(F)(F)F)C(F)(F)F)cc1` [Example 6, 1-(4-(1,1,1,3,3,3-hexafluoro-2-hydroxypropan-2-yl)benzyl)-N-methyl-2-oxo-1,2,3,4-tetrahydroquinoline-6-carboxamide], the pIC50 with IL-17AF was more than 5.00; on human RORγ LBD it was less than 5.00; in the series with IL-17F [1] it was less than 5.00; in the series on IL-17A [3], less than 5.00. The viability in [2] was more than 80%.

For `CN(C)C(=O)c1ccc2c(c1)CCCN2Cc1ccc(C(O)(C(F)(F)F)C(F)(F)F)cc1` [Example 4, 1-(4-(1,1,1,3,3,3-hexafluoro-2-hydroxypropan-2-yl)benzyl)-N,N-dimethyl-1,2,3,4-tetrahydroquinoline-6-carboxamide], the pIC50 in the series on IL-17AF, on human RORγ LBD, in the series with IL-17F [1], in the series with IL-22 [5] and with IL-17A [3] was more than 5.00 in each case. Besides, the “Change in gene expression of compound treated TH17 cells relative to DMSO treated cells, IL-22” value in the series with IL-22 [4] is recorded as “A”. In addition, in the series on TH17 cells, the “% change in TH17 cell number” value is recorded as “B (≦50% decrease in cell proliferation relative to DMSO treated TH17 cells)”. The viability in [2] is more than 80%. Further, in the series on IL-23R, the “Change in gene expression of compound treated TH17 cells relative to DMSO treated cells, IL-23R” value is recorded as “A”. In addition, the “Change in gene expression of compound treated TH17 cells relative to DMSO treated cells, IL-17F” value with IL-17F [6] is on record as “A”. In addition, the “Change in gene expression of compound treated TH17 cells relative to DMSO treated cells, IL-17A” value in the series with IL-17A [7] is “A”. The “Change in gene expression of compound treated TH17 cells relative to DMSO treated cells, IL-21” value with IL-21 is on record as “A”. Besides, the “Change in gene expression of compound treated TH17 cells relative to DMSO treated cells, FOXP3” value in the series with FOXP3 is “A”.

`NC(=O)c1ccc2c(c1)CCCN2Cc1ccc(C(O)(C(F)(F)F)C(F)(F)F)cc1` [Example 2, 1-(4-(1,1,1,3,3,3-hexafluoro-2-hydroxypropan-2-yl)benzyl)-1,2,3,4-tetrahydroquinoline-6-carboxamide]: the pIC50 with IL-17AF, with IL-17F [1], in the series on IL-22 [5] and in the series on IL-17A [3] was more than 5.00 in each case. For the same compound, in the series on IL-22 [4], the “Change in gene expression of compound treated TH17 cells relative to DMSO treated cells, IL-22” value is “A”. Moreover, in the series on TH17 cells, the “% change in TH17 cell number” value is listed as “B (≦50% decrease in cell proliferation relative to DMSO treated TH17 cells)”. In addition, the viability in series [2] is more than 80%. Moreover, the “Change in gene expression of compound treated TH17 cells relative to DMSO treated cells, IL-23R” value with IL-23R is reported as “A”. Further, the “Change in gene expression of compound treated TH17 cells relative to DMSO treated cells, IL-17F” value in the series on IL-17F [6] is on record as “A”. In addition, in the series with IL-17A [7], the “Change in gene expression of compound treated TH17 cells relative to DMSO treated cells, IL-17A” value is “A”. In the series with IL-21, the “Change in gene expression of compound treated TH17 cells relative to DMSO treated cells, IL-21” value is given as “A”. In addition, the “Change in gene expression of compound treated TH17 cells relative to DMSO treated cells, FOXP3” value in the series on FOXP3 is reported as “A”.

Take `CNC(=O)c1ccc2c(c1)CCCN2Cc1ccc(C(O)(C(F)(F)F)C(F)(F)F)cc1` [Example 3, 1-(4-(1,1,1,3,3,3-hexafluoro-2-hydroxypropan-2-yl)benzyl)-N-methyl-1,2,3,4-tetrahydroquinoline-6-carboxamide]: the pIC50 in the series with IL-17AF, at human RORγ LBD, with IL-17F [1], with IL-22 [5] and in the series on IL-17A [3] was more than 5.00 in each case. Further, the “Change in gene expression of compound treated TH17 cells relative to DMSO treated cells, IL-22” value in the series with IL-22 [4] was “A”. In the series with TH17 cells, the “% change in TH17 cell number” value is “B (≦50% decrease in cell proliferation relative to DMSO treated TH17 cells)”. Besides, the viability in [2] is more than 80%. Further, the “Change in gene expression of compound treated TH17 cells relative to DMSO treated cells, IL-23R” value with IL-23R was “A”. Moreover, the “Change in gene expression of compound treated TH17 cells relative to DMSO treated cells, IL-17F” value with IL-17F [6] is “A”. The “Change in gene expression of compound treated TH17 cells relative to DMSO treated cells, IL-17A” value in the series on IL-17A [7] was “A”. Besides, the “Change in gene expression of compound treated TH17 cells relative to DMSO treated cells, IL-21” value with IL-21 is “A”. Moreover, in the series with FOXP3, the “Change in gene expression of compound treated TH17 cells relative to DMSO treated cells, FOXP3” value was “A”.

Source of the values: patent US9708268B2, “ROR modulators and their uses” (INNOV17 LLC, priority 2012, dated 2017).
